Measurements from paper PMC11550998, “Novel 5-HT7 receptor antagonists modulate intestinal immune responses and reduce severity of colitis” (American Journal of Physiology - Gastrointestinal and Liver …, 2024).

How the values were obtained:
[1] = target: T1, α2A (Homo sapiens, UniProt P08913); assay: PDSP selectivity profiling, α2A; format: binding
T1 construct: NIMH Psychoactive Drug Screening Program (PDSP), assay service
Protocol: (§1) In vitro assessments of MC-170073, MC-20078, and MC-230079 activity at the following targets were determined using the assay systems available through the Psychoactive Drug Screening Program (PDSP). Detailed protocols for each assay are available at https://pdsp.unc.edu/pdspweb/?site=assays. Receptors 5-HT1A, 5-HT1B, 5-HT1D, 5-HT1E, 5-HT2A, 5-HT2B, 5-HT2C, 5-HT3, 5-HT5A, 5-HT6, 5-HT7, α1A, α1B, α1D, α2A, α2B, α2C, benzodiazepine, β1, β2, β3, GABA-A, H1, H2, H3, H4, M1, M2, M3, M4, M5, δ-opioid, κ-opioid, and µ-opioid and transporters dopamine, norepinephrine, and serotonin were evaluated.

[2] = target: T2, α2B (Homo sapiens, UniProt P18089); assay: PDSP selectivity profiling, α2B; format: binding
T2 construct: NIMH Psychoactive Drug Screening Program (PDSP), assay service
Protocol: as §1

[3] = target: T3, D1 (Homo sapiens, UniProt P21728); assay: PDSP selectivity profiling, D1; format: binding
T3 construct: NIMH Psychoactive Drug Screening Program (PDSP), assay service

[4] = Plasma protein binding by equilibrium dialysis; format: in vitro ADME; settings: mouse
Protocol: Plasma protein binding was performed by using equilibrium dialysis (ED) ([17]). ED was performed using a 96-well equilibrium dialyzer with a molecular weight (MW) cutoff of 5 K (Harvard Apparatus, Holliston, MA) and placed in a dual-plate rotator set to maximum speed (Harvard Apparatus, Holliston, MA) located in a 37°C incubator with a 10% CO2 environment. After 22 h of dialysis, buffer and plasma were removed from each side of the dialysis plate. Samples were mixed with equal volumes of the opposite matrix (plasma or buffer) and stored at −20°C for future analyte quantitation.
Plasma concentrations were determined using an LC-MS/MS method. Briefly, 100-µL acetonitrile with an internal standard solution (Diltiazem, 0.1 μg/mL) was added to 50-µL plasma or tissue homogenate. After being vortexed for 1 min, the mixture was centrifuged at 3,000 g for 5 min. LC-MS/MS analysis was carried out using a high-performance liquid chromatography system consisting of an Agilent 1100 system interfaced to an API4000 SCIEX triple-quadrupole tandem mass spectrometer (Applied Biosystems/MDS Sciex, Foster City, CA). […] The detection and quantification of analytes were performed with the m/z transition 347/191 for MC-170073, MC-230078, and MC-230079, and m/z 415/178 for diltiazem.

[5] = tested on: CD4+CD45RBhigh T cell-induced colitis; assay: CD4+CD45RBhigh T cell-induced chronic colitis model; format: in vivo, Rag1-/- mice
Text: C57BL/6 (Taconic, Cambridge City, IN) for the DSS model of colitis, as well as C57BL/6 and Rag1^−/− mice (Jackson Laboratory, Bar Harbor, ME) for the T-cell transfer model, were kept in sterilized, filter-topped cages under specific pathogen-free conditions upon arrival and fed autoclaved food. Male mice aged 8–10 wk were used for all experiments. Mice were acclimatized for 7 days before the start of any experiments. All experiments were approved by the animal ethics committee of McMaster University and conducted under Canadian guidelines for animal research.
Colitis was induced in Rag1^−/− mice by adoptive transfer of fluorescence-activated cell sorting (FACS)-sorted CD4^+CD45RB^high T cells, as described previously ([18]). Briefly, CD4^+ T cells were isolated from splenocytes of healthy C57BL/6 mice by the EasySep Mouse Naive CD4^+ T Cell Isolation Kit (StemCell Technology, Vancouver, Canada). Naive CD4^+ T cells were then labeled with PE-cy7-conjugated anti-mouse CD3 (BioLegend, San Diego, CA), allophycocyanin (APC)-conjugated anti-mouse CD4 (BD Biosciences), and fluorescein isothiocyanate (FITC)-conjugated anti-mouse CD45RB (BD Biosciences, Mississauga, Canada). CD4^+CD45RB^high T cells were sorted using a FACS Aria II flow cytometer (BD Biosciences, Mississauga, Canada). Cell viability was assessed using a Trypan blue assay before injection. Recipients were administered ∼5 × 10^5 sorted T cells via intraperitoneal injection.
For acute DSS-induced colitis, C576BL/6 mice were treated with MC-170073 (10 mg/kg of body wt) or vehicle (10% DMSO in normal saline) via intraperitoneal injection once daily for 6 days, starting 1 day before the beginning of DSS. In a separate experiment, C57BL/6 mice were orally administered with MC-230078 (10 mg/kg) or vehicle twice daily for 5 days, starting from the beginning of DSS. For chronic DSS-induced colitis, C57BL/6 mice were treated with MC-170073 (10 mg/kg ip) or vehicle once daily for 6 days, starting 1 day before the beginning of the third cycle. Last, for CD4^+CD45RB^high T cell-induced chronic colitis, reconstituted Rag1^−/− mice were orally administered MC-230078 (5 mg/kg or 10 mg/kg) or a vehicle twice daily for 10 days starting from week 6 post-reconstitution of T cells.
Disease activity index (DAI) is a combined score of weight loss, stool consistency, and fecal bleeding and was blindly assessed using a previously published scoring system ([19]). This scoring system was defined as follows: weight loss: 0 = no loss; 1 = 1–5%; 2 = 5–10%; 3 = 10–20%; 4 = 20%+; stool, 0 = normal; 2 = loose stool; 4 = diarrhea; and bleeding: 0 = no blood; 2 = hemoccult positive (Hemoccult II; Beckman Coulter, Fullerton, CA); and 4 = gross blood (blood around anus). DAI was measured across all days of DSS treatment. Macroscopic damage scores were blindly scored using a previously published scoring system for DSS-induced colitis ([19]).
Colonic myeloperoxidase (MPO) levels were measured following a published protocol ([19]). Briefly, colonic tissue samples were homogenized in ice-cold 50 mmol·L^−1 potassium phosphate buffer containing 0.5% hexadecyl trimethyl ammonium bromide (pH = 6.0) (Sigma). Homogenates were centrifuged, the supernatant was removed, and an aliquot was then added to a solution containing potassium phosphate buffer, O-dianisidine, and hydrogen peroxide (Sigma-Aldrich). The absorbance was measured at 450 nm by a spectrophotometer (model EL808, BioTek). MPO level was expressed in units per milligram of tissue, where 1 U is defined as the quantity of enzyme able to convert 1 μmol hydrogen peroxide to water per minute at room temperature.
Segments of the proximal colon were washed with PBS, fixed in 10% neutral-buffered formalin, washed with ethanol, and embedded in paraffin. […]

[6] = 10 mg/kg orally twice daily 10 days, vs vehicle

T3 sequence (P21728 whole entry): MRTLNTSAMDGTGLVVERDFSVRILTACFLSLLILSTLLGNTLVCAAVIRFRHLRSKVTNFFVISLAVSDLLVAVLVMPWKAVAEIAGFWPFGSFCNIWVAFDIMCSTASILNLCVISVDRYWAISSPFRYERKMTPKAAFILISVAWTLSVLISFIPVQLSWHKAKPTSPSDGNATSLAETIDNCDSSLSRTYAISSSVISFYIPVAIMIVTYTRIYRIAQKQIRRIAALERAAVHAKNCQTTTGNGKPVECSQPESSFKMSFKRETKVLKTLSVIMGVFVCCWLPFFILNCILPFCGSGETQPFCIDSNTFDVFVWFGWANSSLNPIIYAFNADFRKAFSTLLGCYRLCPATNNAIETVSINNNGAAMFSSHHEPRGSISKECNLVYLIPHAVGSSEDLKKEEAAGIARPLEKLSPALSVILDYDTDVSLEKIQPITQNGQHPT
T1 sequence (P08913 whole entry): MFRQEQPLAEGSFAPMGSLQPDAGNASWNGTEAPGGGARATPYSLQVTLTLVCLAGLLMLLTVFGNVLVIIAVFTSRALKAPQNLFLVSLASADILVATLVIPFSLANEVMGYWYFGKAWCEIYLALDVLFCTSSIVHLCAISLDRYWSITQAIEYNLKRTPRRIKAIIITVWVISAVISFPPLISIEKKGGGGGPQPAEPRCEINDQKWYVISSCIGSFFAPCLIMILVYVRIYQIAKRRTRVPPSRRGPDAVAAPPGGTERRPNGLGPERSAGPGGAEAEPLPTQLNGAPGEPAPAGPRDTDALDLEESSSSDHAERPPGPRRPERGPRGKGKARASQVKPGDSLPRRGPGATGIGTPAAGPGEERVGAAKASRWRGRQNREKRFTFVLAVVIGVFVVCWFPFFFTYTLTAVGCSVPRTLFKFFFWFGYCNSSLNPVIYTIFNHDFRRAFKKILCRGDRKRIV
T2 sequence (P18089 whole entry): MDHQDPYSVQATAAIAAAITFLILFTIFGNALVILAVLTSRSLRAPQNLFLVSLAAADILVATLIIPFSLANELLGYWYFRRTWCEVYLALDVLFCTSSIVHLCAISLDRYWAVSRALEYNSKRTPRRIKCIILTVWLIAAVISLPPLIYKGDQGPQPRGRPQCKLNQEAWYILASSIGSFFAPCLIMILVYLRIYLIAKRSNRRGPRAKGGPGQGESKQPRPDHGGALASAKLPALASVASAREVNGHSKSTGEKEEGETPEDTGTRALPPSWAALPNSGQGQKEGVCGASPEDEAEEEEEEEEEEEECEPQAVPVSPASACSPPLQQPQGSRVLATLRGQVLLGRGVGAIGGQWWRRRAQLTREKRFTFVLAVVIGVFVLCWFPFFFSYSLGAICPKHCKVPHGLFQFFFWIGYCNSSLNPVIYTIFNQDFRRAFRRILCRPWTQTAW

| Ki [1] | Ki [2] | Ki [3] | fraction unbound at 22 h [4] | Structure (SMILES) | DAI ([5]; 10 mg/kg orally twice daily 10 days from week 6, from day 4 of dosing, vs vehicle) | colonic IFN-γ [5, 6] | colonic IL-1β [5, 6] | colonic IL-6 [5, 6] | colonic MPO levels [5, 6] | colonic TNF-α [5, 6] | macroscopic damage [5, 6] | body weight change ([5]; between the two drug-treated groups (5 and 10 mg/kg)) | histological damage scores ([5]; higher dosage (10 mg/kg) orally twice daily 10 days) | colonic 5-HT levels ([5]; treated vs vehicle-treated mice) |
| --- | --- | --- | --- | --- | --- | --- | --- | --- | --- | --- | --- | --- | --- | --- |
| 3.48 µM | 493 nM | 301 nM | 0.6 | CCC1(CC)CC(CCN2CCN(c3ccc(O)cc3)CC2)OC1=O (centres unmarked) [MC-170073] | – | – | – | – | – | – | – | – | – | – |
| – | – | – | – | CCC1(CC)C[C@@H](CCN2CCN(c3ccc(O)cc3)CC2)OC1=O [MC-230078] | significant reduction | significant downregulation | significant downregulation | significant downregulation | significant decrease | significant downregulation | reduced | no difference | significantly lower | no differences |
